Test results: PMC6325200, “Effects of Microplate Type and Broth Additives on Microdilution MIC Susceptibility Assays” (Antimicrobial Agents and Chemotherapy, 2018)
In brackets after ≈: the same amount, converted by molar mass.

How the values were obtained:
E. coli ATCC 25922 = assay: microbe, parasite or virus in culture; conditions: n = 2
Protocol: A positive control of a row of just the bacteria and a negative control of only the medium were included for every plate tested.
The compounds along with standard antibiotics were serially diluted 2-fold across the 96-well plates. […] A sample of each culture was then diluted 40-fold in fresh MH broth (in presence and absence of Tween) and incubated at 37°C for 2 to 3 h.
For experiments in the presence of surfactant, 2% beractant (25 mg/ml) was added to the mid-log-phase cultures and mixed gently and added to all the 96-well plates. For experiments in the presence of serum, a mixture of 50% of human serum along with 50% MHB was prepared and used throughout the experiment.

A. baumannii ATCC 19606 = assay: microbe, parasite or virus in culture; conditions: Acinetobacter baumannii, n = 2
Summary of the method: (§1)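 Broth microdilution: 2-fold serial dilutions of test compounds plus reference antibiotics; inoculum = culture diluted 40x in MH broth ±Tween, 37°C, 2–3 h. Controls per plate: bacteria alone (positive), medium alone (negative).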

K. pneumoniae ATCC 13883 = assay: microbe, parasite or virus in culture; conditions: Klebsiella pneumoniae, n = 2
Summary of the method: as §1

P. aeruginosa ATCC 10145 = assay: microbe, parasite or virus in culture; conditions: Pseudomonas aeruginosa, n = 2
Summary of the method: as §1

MRSA = conditions: literature value; cited from earlier work
Excerpt: TABLE 1 Literature MIC values for tested antibiotics | column: MIC (µg/ml) (reference[s]) / MRSA

E. coli = conditions: literature value; cited from earlier work

CO[C@H]1/C=C/O[C@@]2(C)Oc3c(C)c(O)c4c(O)c(c(/C=N/N5CCN(C)CC5)c(O)c4c3C2=O)NC(=O)/C(C)=C\C=C\[C@H](C)[C@H](O)[C@@H](C)[C@@H](O)[C@@H](C)[C@H](OC(C)=O)[C@@H]1C [Rifampin, rifampin]
MIC (E. coli ATCC 25922; Corning NBS plate, MHB −T80, no additive): 4 to 8 µg/mL | MIC (E. coli ATCC 25922; Corning NBS plate, MHB −T80, no additive, listed as Rifampicin): 4 to 8 µg/mL | MIC (E. coli ATCC 25922; Corning PS plate, MHB +0.002% T80, no further additive): 8 to 16 µg/mL | MIC (E. coli ATCC 25922; Corning PS plate, MHB +0.002% T80, no further additive, listed as Rifampicin): 8 to 16 µg/mL | MIC (E. coli ATCC 25922; Corning PS plate, MHB −T80, no additive): 4 to 8 µg/mL | MIC (E. coli ATCC 25922; Corning PS plate, MHB −T80, no additive, listed as Rifampicin): 4 to 8 µg/mL | MIC (E. coli ATCC 25922; Corning TC plate, MHB −T80, no additive): 4 to 8 µg/mL | MIC (E. coli ATCC 25922; Corning TC plate, MHB −T80, no additive, listed as Rifampicin): 4 to 8 µg/mL | MIC (E. coli ATCC 25922; Escherichia coli, ATCC25922, 24 h, Corning NBS, MH + 2% LHB, 2% LS): 4 to 8 µg/mL | MIC (E. coli ATCC 25922; Escherichia coli, ATCC25922, 24 h, Corning NBS, MH + 2% LHB, 50% HS): 8 µg/mL | MIC (E. coli ATCC 25922; Escherichia coli, ATCC25922, 24 h, Corning NBS, MH + 2% LHB, no additive): 2 to 4 µg/mL | MIC (E. coli ATCC 25922; Escherichia coli, ATCC25922, 24 h, Corning NBS, MH + T80, 2% LS): 4 to 8 µg/mL | MIC (E. coli ATCC 25922; Escherichia coli, ATCC25922, 24 h, Corning NBS, MH + T80, 50% HS): 8 µg/mL | MIC (E. coli ATCC 25922; Escherichia coli, ATCC25922, 24 h, Corning PS, MH + 2% LHB, 2% LS): 4 to 8 µg/mL | MIC (E. coli ATCC 25922; Escherichia coli, ATCC25922, 24 h, Corning PS, MH + 2% LHB, 50% HS): 4 to 8 µg/mL | MIC (E. coli ATCC 25922; Escherichia coli, ATCC25922, 24 h, Corning PS, MH + 2% LHB, no additive): 4 to 8 µg/mL | MIC (E. coli ATCC 25922; Escherichia coli, ATCC25922, 24 h, Corning PS, MH + T80, 2% LS): 4 to 8 µg/mL | MIC (E. coli ATCC 25922; Escherichia coli, ATCC25922, 24 h, Corning PS, MH + T80, 50% HS): 8 µg/mL | MIC (E. coli ATCC 25922; Escherichia coli, ATCC25922, 24 h, Corning TC, MH + 2% LHB, 2% LS): 8 µg/mL | MIC (E. coli ATCC 25922; Escherichia coli, ATCC25922, 24 h, Corning TC, MH + 2% LHB, 50% HS): 8 to 16 µg/mL | MIC (E. coli ATCC 25922; Escherichia coli, ATCC25922, 24 h, Corning TC, MH + 2% LHB, no additive): 8 µg/mL | MIC (E. coli ATCC 25922; Escherichia coli, ATCC25922, 24 h, Corning TC, MH + T80, 2% LS): 4 to 8 µg/mL | MIC (E. coli ATCC 25922; Escherichia coli, ATCC25922, 24 h, Corning TC, MH + T80, 50% HS): 8 µg/mL | MIC (E. coli ATCC 25922; Escherichia coli, ATCC25922, 24 h, Trek PS, MH + 2% LHB, 2% LS): 2 to 4 µg/mL | MIC (E. coli ATCC 25922; Escherichia coli, ATCC25922, 24 h, Trek PS, MH + 2% LHB, 50% HS): 4 µg/mL | MIC (E. coli ATCC 25922; Escherichia coli, ATCC25922, 24 h, Trek PS, MH + 2% LHB, no additive): 4 to 8 µg/mL | MIC (E. coli ATCC 25922; Escherichia coli, ATCC25922, 24 h, Trek PS, MH + T80, 2% LS): 4 µg/mL | MIC (E. coli ATCC 25922; Escherichia coli, ATCC25922, 24 h, Trek PS, MH + T80, 50% HS): 4 to 8 µg/mL | MIC (E. coli ATCC 25922; Escherichia coli, ATCC25922, Corning NBS plate, MHB +0.002% T80, no further additive): 8 µg/mL (≈ 9.72 µM) | MIC (E. coli ATCC 25922; Escherichia coli, ATCC25922, Corning NBS plate, MHB −T80, no additive): 4 to 8 µg/mL (≈ 4.86 to 9.72 µM) | MIC (E. coli ATCC 25922; Escherichia coli, ATCC25922, Corning NBS, MH, 2% LS): 8 µg/mL (≈ 9.72 µM) | MIC (E. coli ATCC 25922; Escherichia coli, ATCC25922, Corning NBS, MH, 50% HS): 8 µg/mL (≈ 9.72 µM) | MIC (E. coli ATCC 25922; Escherichia coli, ATCC25922, Corning PS plate, MHB +0.002% T80, no further additive): 8 to 16 µg/mL (≈ 9.72 to 19.4 µM) | MIC (E. coli ATCC 25922; Escherichia coli, ATCC25922, Corning PS plate, MHB −T80, no additive): 4 to 8 µg/mL (≈ 4.86 to 9.72 µM) | MIC (E. coli ATCC 25922; Escherichia coli, ATCC25922, Corning PS, MH, 2% LS): 8 µg/mL (≈ 9.72 µM) | MIC (E. coli ATCC 25922; Escherichia coli, ATCC25922, Corning PS, MH, 50% HS): 4 to 8 µg/mL (≈ 4.86 to 9.72 µM) | MIC (E. coli ATCC 25922; Escherichia coli, ATCC25922, Corning TC plate, MHB +0.002% T80, no further additive): 8 µg/mL (≈ 9.72 µM) | MIC (E. coli ATCC 25922; Escherichia coli, ATCC25922, Corning TC plate, MHB −T80, no additive): 4 to 8 µg/mL (≈ 4.86 to 9.72 µM) | MIC (E. coli ATCC 25922; Escherichia coli, ATCC25922, Corning TC, MH, 2% LS): 8 µg/mL (≈ 9.72 µM) | MIC (E. coli ATCC 25922; Escherichia coli, ATCC25922, Corning TC, MH, 50% HS): 8 µg/mL (≈ 9.72 µM) | MIC (E. coli ATCC 25922; Escherichia coli, ATCC25922, Nunc PS plate, MHB +0.002% T80): 4 to 8 µg/mL (≈ 4.86 to 9.72 µM) | MIC (E. coli ATCC 25922; Escherichia coli, ATCC25922, Nunc PS plate, MHB −T80): 4 µg/mL (≈ 4.86 µM) | MIC (E. coli ATCC 25922; Escherichia coli, ATCC25922, Nunc U TC plate, MHB +0.002% T80): 8 µg/mL (≈ 9.72 µM) | MIC (E. coli ATCC 25922; Escherichia coli, ATCC25922, Nunc U TC plate, MHB −T80): 4 to 8 µg/mL (≈ 4.86 to 9.72 µM) | MIC (E. coli ATCC 25922; Escherichia coli, ATCC25922, Nunc flat TC plate, MHB +0.002% T80): 8 µg/mL (≈ 9.72 µM) | MIC (E. coli ATCC 25922; Escherichia coli, ATCC25922, Nunc flat TC plate, MHB −T80): 4 µg/mL (≈ 4.86 µM) | MIC (E. coli ATCC 25922; Escherichia coli, ATCC25922, Trek PS plate, MHB +0.002% T80, no further additive): 8 to 16 µg/mL (≈ 9.72 to 19.4 µM) | MIC (E. coli ATCC 25922; Escherichia coli, ATCC25922, Trek PS plate, MHB −T80, no additive): 4 µg/mL (≈ 4.86 µM) | MIC (E. coli ATCC 25922; Escherichia coli, ATCC25922, Trek PS, MH, 2% LS): 4 to 8 µg/mL (≈ 4.86 to 9.72 µM) | MIC (E. coli ATCC 25922; Escherichia coli, ATCC25922, Trek PS, MH, 50% HS): 8 µg/mL (≈ 9.72 µM) | MIC (E. coli ATCC 25922; Trek PS plate, MHB +0.002% T80, no further additive): 8 to 16 µg/mL | MIC (A. baumannii ATCC 19606; ATCC19606, Corning NBS, MHB +T80): 2 µg/mL (≈ 2.43 µM) | MIC (A. baumannii ATCC 19606; ATCC19606, Corning NBS, MHB -T80): 2 µg/mL (≈ 2.43 µM) | MIC (A. baumannii ATCC 19606; ATCC19606, Corning PS, MHB +T80): 2 µg/mL (≈ 2.43 µM) | MIC (A. baumannii ATCC 19606; ATCC19606, Corning PS, MHB -T80): 2 µg/mL (≈ 2.43 µM) | MIC (A. baumannii ATCC 19606; ATCC19606, Corning TC, MHB +T80): 2 µg/mL (≈ 2.43 µM) | MIC (A. baumannii ATCC 19606; ATCC19606, Corning TC, MHB -T80): 2 to 4 µg/mL (≈ 2.43 to 4.86 µM) | MIC (K. pneumoniae ATCC 13883; ATCC13883, Corning NBS, MHB +T80): 16 µg/mL (≈ 19.4 µM) | MIC (K. pneumoniae ATCC 13883; ATCC13883, Corning NBS, MHB -T80): 16 µg/mL (≈ 19.4 µM) | MIC (K. pneumoniae ATCC 13883; ATCC13883, Corning PS, MHB +T80): 16 to 64 µg/mL (≈ 19.4 to 77.8 µM) | MIC (K. pneumoniae ATCC 13883; ATCC13883, Corning PS, MHB -T80): 8 to 16 µg/mL (≈ 9.72 to 19.4 µM) | MIC (K. pneumoniae ATCC 13883; ATCC13883, Corning TC, MHB +T80): 16 µg/mL (≈ 19.4 µM) | MIC (K. pneumoniae ATCC 13883; ATCC13883, Corning TC, MHB -T80): 16 µg/mL (≈ 19.4 µM) | MIC (P. aeruginosa ATCC 10145; ATCC10145, Corning NBS, MHB +T80): 32 µg/mL (≈ 38.9 µM) | MIC (P. aeruginosa ATCC 10145; ATCC10145, Corning NBS, MHB -T80): 16 to 32 µg/mL (≈ 19.4 to 38.9 µM) | MIC (P. aeruginosa ATCC 10145; ATCC10145, Corning PS, MHB +T80): 32 to 64 µg/mL (≈ 38.9 to 77.8 µM) | MIC (P. aeruginosa ATCC 10145; ATCC10145, Corning PS, MHB -T80): 16 to 32 µg/mL (≈ 19.4 to 38.9 µM) | MIC (P. aeruginosa ATCC 10145; ATCC10145, Corning TC, MHB +T80): 32 µg/mL (≈ 38.9 µM) | MIC (P. aeruginosa ATCC 10145; ATCC10145, Corning TC, MHB -T80): 32 µg/mL (≈ 38.9 µM) | MIC (literature) (MRSA): 0.015 ([62]) µg/ml | MIC (literature) (E. coli): 2 ([74], [75]) µg/ml
